Target: PARP1 (Homo sapiens, UniProt P09874)
Assay: enzyme inhibition assay with recombinant human PARP1
Type: biochemical

Sequence of PARP1 (P09874 2-1014): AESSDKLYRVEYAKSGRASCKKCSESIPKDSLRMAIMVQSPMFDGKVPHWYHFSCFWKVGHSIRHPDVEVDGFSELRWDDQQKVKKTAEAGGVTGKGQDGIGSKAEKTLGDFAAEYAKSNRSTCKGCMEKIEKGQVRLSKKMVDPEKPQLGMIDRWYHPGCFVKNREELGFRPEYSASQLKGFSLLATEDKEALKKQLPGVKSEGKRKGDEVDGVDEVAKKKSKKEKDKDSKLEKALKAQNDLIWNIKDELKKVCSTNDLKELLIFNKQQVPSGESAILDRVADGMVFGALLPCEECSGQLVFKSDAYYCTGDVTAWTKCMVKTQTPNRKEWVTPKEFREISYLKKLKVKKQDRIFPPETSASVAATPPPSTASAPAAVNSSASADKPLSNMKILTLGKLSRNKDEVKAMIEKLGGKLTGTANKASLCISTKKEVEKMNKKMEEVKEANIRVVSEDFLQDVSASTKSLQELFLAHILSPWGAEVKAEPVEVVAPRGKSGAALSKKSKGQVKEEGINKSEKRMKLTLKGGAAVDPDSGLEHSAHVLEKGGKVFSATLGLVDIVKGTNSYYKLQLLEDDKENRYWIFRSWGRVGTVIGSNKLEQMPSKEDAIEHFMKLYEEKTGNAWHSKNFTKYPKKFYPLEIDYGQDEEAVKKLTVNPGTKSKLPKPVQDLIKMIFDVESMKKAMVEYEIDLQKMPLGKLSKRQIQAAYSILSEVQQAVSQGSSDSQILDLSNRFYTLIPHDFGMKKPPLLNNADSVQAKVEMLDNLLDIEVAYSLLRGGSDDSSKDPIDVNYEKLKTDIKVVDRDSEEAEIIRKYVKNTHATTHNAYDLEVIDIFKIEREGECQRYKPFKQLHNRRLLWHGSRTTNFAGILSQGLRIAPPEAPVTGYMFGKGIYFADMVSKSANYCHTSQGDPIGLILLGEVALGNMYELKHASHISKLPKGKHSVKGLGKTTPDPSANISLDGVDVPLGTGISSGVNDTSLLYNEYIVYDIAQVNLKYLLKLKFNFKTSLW

Row | Substance | IC50 [nM]
1 | Olaparib-SiR-COOH [compound 10] | 100
2 | Olaparib-SiR-Me [compound 6] | 99.2
